We go through 30 compounds from ChEMBL document CHEMBL3046454, “Structureactivity relationship study of thiosemicarbazones on an African trypanosome: Trypanosoma brucei brucei” (Med Chem Res, 2013).

For data set [1], the system named is Trypanosoma brucei brucei. Put plainly: Trypanocidal activity against Trypanosoma brucei brucei 427 bloodstream form assessed as inhibition of parasite proliferation after 72 hr by Lilit Alamar Blue method. Type of data set: functional, organism-based. In general terms: The colour change of resazurin is a common sign of viable cells or microbes.
A short description of data set [2]: Selectivity index, ratio of LC50 for Artemia salina larvae to IC50 for Trypanosoma brucei brucei 427 bloodstream form.
Data set [3] can be described thus: Toxicity against Artemia salina (brine shrimp) larvae assessed as mortality after 24 hr. The settings on record: in vivo. Type of data set: organism-based.
The mark [4] stands for this setting: Trypanosoma brucei, 427, 72 h, read-out: IC50.

For orientation: IC50 means the concentration at which inhibition is half-maximal. With `C/C(=N/NC(N)=S)c1ccccc1` [ACETOPHENONE-THIOSEMICARBAZONE], the IC50 in data set [1] (setting [4]) was found to be 212 µM.
As to `NC(=S)N/N=C\c1cccc(Cl)c1`, the IC50 in data set [1] (setting [4]) came out at 164 µM.
With `Cc1ccccc1/C=N\NC(N)=S`, the IC50 in data set [1] (setting [4]) amounted to 222 µM.
As to `CC/C(=N/NC(N)=S)c1ccc(OC)cc1`, the IC50 in data set [1] (setting [4]) stood at 132 µM.
`NC(=S)N/N=C\c1cccc(Br)c1`: in data set [1] (setting [4]), the IC50 amounted to 136 µM.
Regarding `C=C(C)C1CC=C(C)/C(=N/NC(N)=S)C1` (stereo not drawn) [CARVONE-THIOSEMICARBAZONE], the IC50 in data set [1] (setting [4]) is 39.7 µM.
As for `NC(=S)N/N=C\c1cc(Cl)ccc1O`, in data set [1] (setting [4]), the IC50 is 45.6 µM.
For `NC(=S)N/N=C\c1ccccc1Cl`, the IC50 in data set [1] (setting [4]) is 220 µM.
As a reminder, the LC50 is the concentration that kills 50% of the test population. As for `C/C(=N/NC(=S)Nc1ccccc1)c1ccc(Cl)cc1`, in data set [1] (setting [4]), the IC50 is 3.97 µM. Further, the Ratio LC50/IC50 in data set [2] is 110. In addition, the LC50 at 24 h in data set [3] came out at 438 µM.
Regarding `C/C(=N/N=C(\N)S)C12CC3CC(CC(C3)C1)C2`, the IC50 in data set [1] (setting [4]) was 8.38 µM. Besides, the Ratio LC50/IC50 in data set [2] was 14.2. Also, the LC50 at 24 h in data set [3] is 119 µM.
With `NC(=S)N/N=C\c1ccccc1O`, in data set [1] (setting [4]), the IC50 is 170 µM.
Same read-out and setting: as for `C/C(=N/NC(N)=S)c1cccc(Br)c1`, the figure is 70.4 µM.
Take `C/C(=N/NC(=S)Nc1ccccc1)c1ccc2ccccc2c1`: in data set [1], the IC50 result was “ND(Insoluble)”.
Consider `CN(C)c1ccc(/C=C/C=N\NC(N)=S)cc1`, for which the IC50 in data set [1] (setting [4]) stood at 17.7 µM.
As for `NC(S)=NN=C(Cc1ccccc1)Cc1ccccc1`, the IC50 in data set [1] (setting [4]) was determined as 147 µM.
For the compound `C/C(=N/NC(=S)Nc1ccccc1)c1ccc(Br)cc1`, the IC50 in data set [1] (setting [4]) was determined as 5.19 µM. Besides, in data set [2], the Ratio LC50/IC50 was found to be 25.9. Besides, the LC50 at 24 h in data set [3] was determined as 134 µM.
As for `C/C(=N/NC(N)=S)c1ccc2ccccc2c1` [ACETONAPHTHONE-THIOSEMICARBAZONE], the IC50 in data set [1] (setting [4]) was 9.62 µM. In addition, in data set [2], the Ratio LC50/IC50 came out at 50. Further, the LC50 at 24 h in data set [3] was 481 µM.
`C/C(=N/NC(N)=S)c1ccccc1Cl`: the IC50 in data set [1] (setting [4]) amounted to 199 µM.
In the case of `COc1cc(/C(C)=N\NC(N)=S)cc(OC)c1OC`, in data set [1], the IC50 entry is recorded as “Not Active”.
With `NC(=S)N/N=C\c1ccc(Cl)cc1`, the IC50 in data set [1] (setting [4]) was determined as 82.6 µM.
In the case of `COc1ccc(/C(C)=N\NC(N)=S)cc1OC`, the IC50 entry in data set [1] is listed as “Not Active”.
In the case of `NC(=S)NN=C(c1ccccc1)c1ccccc1` [BENZOPHENONE-THIOSEMICARBAZONE], in data set [1] (setting [4]), the IC50 amounted to 68.3 µM.
For `C/C(=N/N=C(\N)S)c1ccc(Cl)cc1` [P-CHLOROPHENYL(METHYL)THIOSEMICARBAZONE], the IC50 in data set [1] (setting [4]) is 11.1 µM.
For `Cc1ccc(/C=N\NC(N)=S)cc1`, in data set [1] (setting [4]), the IC50 amounted to 124 µM.
Consider `COc1ccc(/C(C)=N\NC(N)=S)cc1`, for which, in data set [1] (setting [4]), the IC50 was 91.1 µM.
For `NC(=S)N/N=C\CCc1ccccc1`, the IC50 in data set [1] (setting [4]) was found to be 260 µM.
For `NC(=S)N/N=C\C=C\c1ccccc1`, in data set [1] (setting [4]), the concentration for half-maximal inhibition (IC50) is 76.3 µM.
Regarding `C/C(=N/NC(N)=S)c1ccc(Br)cc1`, the IC50 in data set [1] (setting [4]) came to 26.9 µM.
For `NC(=S)N/N=C\c1ccccc1` [BENZALDEHYDE-THIOSEMICARBAZONE], the IC50 in data set [1] (setting [4]) came out at 444 µM.
As for `COc1ccc(/C=N\NC(N)=S)cc1`, the IC50 in data set [1] (setting [4]) came to 259 µM.
